{"source": "paper PMC5812370", "about": "(Biochemistry, 2017)", "origin": "cited, not measured here", "key": {"[1]": {"molecular_target": "uPAR·uPA protein–protein interaction (Homo sapiens, UniProt Q03405)", "sequence (Q03405 23-305 limits assumed)": "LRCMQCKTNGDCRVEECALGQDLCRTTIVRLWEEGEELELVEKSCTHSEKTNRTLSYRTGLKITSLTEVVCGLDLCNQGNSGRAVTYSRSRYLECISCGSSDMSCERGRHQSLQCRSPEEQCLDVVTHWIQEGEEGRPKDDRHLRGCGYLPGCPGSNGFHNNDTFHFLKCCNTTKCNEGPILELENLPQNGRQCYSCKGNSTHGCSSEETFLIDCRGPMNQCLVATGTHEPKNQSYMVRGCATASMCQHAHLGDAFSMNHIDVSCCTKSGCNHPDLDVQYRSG"}, "uPAR": {"molecular_target": "uPAR (Homo sapiens, UniProt Q03405)", "sequence (Q03405 23-305 limits assumed)": "as above"}}}
{"molecule": "O=C(O)c1cccc(Nc2cc(N3CCCCCC3)c3noc4c3c2C(=O)c2ccccc2-4)c1", "note": "[Compound 2]", "values": [{"measurement": "IC50 for inhibition of the uPAR·uPA complex (in words)", "setting": "[1]", "value": "single-digit micromolar"}, {"measurement": "binding affinity to uPAR (in words)", "setting": "uPAR", "value": "submicromolar"}]}
